Experimental data: ChEMBL document CHEMBL1147713, “Inhibition of trypsin and urokinase by Cbz-amino(4-guanidinophenyl)methanephosphonate aromatic ester derivatives: the influence of the ester group on their biological activity” (Bioorg Med Chem Lett, 2006); call rule not given here

Key:
[1] = molecular target: Urokinase-type plasminogen activator (Homo sapiens, UniProt P00749); test: Inhibition of human uPA by chromogenic assay using Cbz-Val-Gly-Arg-pNA as chromogenic substrate
[2] = Inhibition of bovine trypsin by chromogenic assay using Bzl-L-Arg-pNA as chromogenic substrate; set-up: species or system Bos taurus
[3] = Selectivity for trypsin over uPA by chromogenic assay

Question: What does the source list for `CC(C)(C)c1ccc(OP(=O)(Oc2ccc(C(C)(C)C)cc2)C(NC(=O)OCc2ccccc2)c2ccc(NC(=N)N)cc2)cc1` (centres undefined)?
Answer: IC50 [1]: 98 nM; IC50 ([2]; read-out: IC50): 88 nM; Ratio IC50 [3]: 0.9

Question: Which IC50 [1] does the source give for `CCc1ccc(OP(=O)(Oc2ccc(CC)cc2)C(NC(=O)OCc2ccccc2)c2ccc(NC(=N)N)cc2)cc1` (centres undefined) here?
Answer: 7800 nM

Question: And the IC50 ([2]; read-out: IC50)?
Answer: 17 nM

Question: What about the Ratio IC50 [3] of the same compound?
Answer: 0.002

Question: Which results are given for `CC(C)(C)CC(C)(C)c1ccc(OP(=O)(Oc2ccc(C(C)(C)CC(C)(C)C)cc2)C(NC(=O)OCc2ccccc2)c2ccc(NC(=N)N)cc2)cc1` (centres undefined)?
Answer: IC50 [1]: 204 nM; IC50 ([2]; read-out: IC50): 2310 nM; Ratio IC50 [3]: 11.3

Question: With `N=C(N)Nc1ccc(C(NC(=O)OCc2ccccc2)P(=O)(Oc2ccccc2)Oc2ccccc2)cc1` (centres undefined) as the compound, how does the IC50 [1] read?
Answer: 532 nM

Question: What about the IC50 ([2]; read-out: IC50) of the same compound?
Answer: 112 nM

Question: What about the Ratio IC50 [3] of the same compound?
Answer: 0.21

Question: Which results are given for `N=C(N)Nc1ccc(C(NC(=O)OCc2ccccc2)P(=O)(Oc2ccc3ccccc3c2)Oc2ccc3ccccc3c2)cc1.O=C(O)C(F)(F)F` (centres undefined)?
Answer: IC50 [1]: 455 nM; IC50 [2]: Not Active

Question: For `CC(C)c1ccc(OP(=O)(Oc2ccc(C(C)C)cc2)C(NC(=O)OCc2ccccc2)c2ccc(NC(=N)N)cc2)cc1` (centres undefined), which IC50 [1] is on record?
Answer: 208 nM

Question: What about the IC50 ([2]; read-out: IC50) of the same compound?
Answer: 61 nM

Question: What about the Ratio IC50 [3] of the same compound?
Answer: 0.29

Question: Which IC50 [1] does the source give for `CSc1ccc(OP(=O)(Oc2ccc(SC)cc2)C(NC(=O)OCc2ccccc2)c2ccc(NC(=N)N)cc2)cc1` (centres undefined) here?
Answer: 26 nM

Question: And the IC50 ([2]; read-out: IC50)?
Answer: 8.7 nM

Question: What about the Ratio IC50 [3] of the same compound?
Answer: 0.33

Question: Which IC50 [1] does the source give for `CS(=O)(=O)c1ccc(OP(=O)(Oc2ccc(S(C)(=O)=O)cc2)C(NC(=O)OCc2ccccc2)c2ccc(NC(=N)N)cc2)cc1` (centres undefined) here?
Answer: 53 nM

Question: And the IC50 ([2]; read-out: IC50)?
Answer: 23000 nM

Question: What about the Ratio IC50 [3] of the same compound?
Answer: 434

Question: Which results are given for `Cc1ccc(OP(=O)(Oc2ccc(C)cc2)C(NC(=O)OCc2ccccc2)c2ccc(NC(=N)N)cc2)cc1` (centres undefined)?
Answer: IC50 [1]: 370 nM; IC50 ([2]; read-out: IC50): 176 nM; Ratio IC50 [3]: 0.48

Question: With `COc1ccc(OP(=O)(Oc2ccc(OC)cc2)C(NC(=O)OCc2ccccc2)c2ccc(NC(=N)N)cc2)cc1` (centres undefined) as the compound, how does the IC50 [1] read?
Answer: 2600 nM

Question: And the IC50 ([2]; read-out: IC50)?
Answer: 251 nM

Question: What about the Ratio IC50 [3] of the same compound?
Answer: 0.1
